Twelve compounds from patent publication US20150250911A1, “MALODOR COUNTERACTING COMPOSITIONS” (GIVAUDAN, S.A., priority 2012, published 2015) can be followed below.

Assay [1] can be described thus: Sensory tests of compounds of formula (I) against 4 malodour compounds. The arrangement: species or system human; key: ++++: no malodour present/strong reduction in malodour; +++: medium reduction in malodour; ++: weak malodour reduction; +: no change from control; ◯: worse than control. As to conditions: reference malodour sample scored +. As for the experimental part: (§1) Sensory studies were performed in 120 ml Beetson jar. The test compounds were prepared in DEP (=Diethylphtalate) and pipetted onto a desized woven cotton piece of cloth placed at the bottom of a jar. Where two or more compounds were tested in the same jar, they were applied to separate areas of the cotton cloth. Prior the first assessment and between assessments, the jars were incubated at room temperature for one hour so that the headspace did reach equilibrium.
The same procedures as described in Example 5 have been followed.
The compounds of formula (I) were assessed by the trained volunteers against 4 malodour compounds, namely isovaleric acid, dimethyl disulfide, 2-methyl-3-mercaptobutan-1-ol, and 3-hydroxy-3-methyl hexanoic acid.
For the sensory test, participants were given the reference malodour sample and were told that this scored+on a scale as indicated below. They were then asked to assess and score the test jars in the specified sequence, with a 20 second gap between jars. The jars were given to the assessors blind in random permutations, with each volunteer smelling all permutations in duplicate.
The following score scale was used:
++++: no malodour present/strong reduction in malodour +++: medium reduction in malodour ++: weak malodour reduction +: no change from control ◯: worse than control

Assay [2] can be described thus: Sensory study in jars: malodour score by trained volunteers, IVA malodour. The arrangement: species or system human. As to conditions: 0-5 scale (4 = no change from control); IVA (50 ul @ 0.06%) and 200 ul ORIVOL @0.1%. As for the experimental part: as §1
(§2) Sensory studies were performed following the procedure described in Example 5. For the sensory test, participants were given a reference malodour sample (comprising the same ingredients as the jars with the maldodour) and were told that this scored 4 on a 0-5 scale. They were then asked to assess and score three test jars on a 0-5 scale in the specified sequence, with a 20 second gap between jars. The jars were given to the assessors blind in random permutations, with each volunteer smelling all three permutations in duplicate.
(§3) 0: no malodour present 1: strong reduction in malodour 2 medium reduction in malodour 3: weak malodour reduction 4: no change from control 5: worse than control
(§4) Approx. 20 trained volunteers did participate in each study twice.

The nature of assay [3]: Sensory study in jars: malodour score by trained volunteers, HMHA malodour. The arrangement: species or system human. As to conditions: 0-5 scale (4 = no change from control); HMHA (50 ul @ 0.01%) and 200 ul ORIVOL @ 0.1%. As for the experimental part: as §1, §2, §3, §4
Assay [4] is described as follows: Sensory study in jars: malodour score by trained volunteers, MO malodour. The arrangement: species or system human. The protocol:
as §1, §2, §3, §4

The nature of assay [5]: Sensory study in jars: malodour score by trained volunteers, DMDS malodour. Also on record: species or system human. As to conditions: for Malodour Score (arith. means): 0-5 scale (4 = no change from control). The protocol:
as §1
For the sensory test, participants were given a reference malodour sample (comprising the same ingredients as the jar with the malodour) and were told that this scored 4 on a 0-5 scale. They were then asked to assess and score three test jars on a 0-5 scale in the specified sequence, with a 20 second gap between jars. The jars were given to the assessors blind in random permutations, with each volunteer smelling all three permutations in duplicate.
as §3, §4

As to `OC1CCCCCCCCCCCCCC1` [Compound 5.12], the Sensory score result in assay [1] is “++++”. Regarding `OC1CCCCCCCCCC1` [Compound 5.9], in assay [1], the Sensory score entry is recorded as “+++”. In the case of `CCC(C)(C)C1CCC(O)CC1` (stereo not shown) [Compound 5.4], in assay [1], the Sensory score entry is recorded as “++++”. Take `CC(C)CC1CCC(CC(C)CO)CC1` (stereo not shown) [Compound 5.6, 3-(4-isobutylcyclohexyl)-2-methylpropan-1-ol]: in assay [1], the Sensory score result is “+++”. Regarding `OC1CCCCCCCCCCCC1` [Compound 5.10], the Sensory score entry in assay [1] is recorded as “++++”. Same read-out and setting: as for `CC1(O)CCCCCCCCCCCC1` [Compound 5.11], the entry is “++++”.

Consider `CCC(C)(C)C1CCC(O)CC1` (stereo not shown) [ORIVOL, 4-(tert-pentyl)cyclohexanol], for which the “Malodour Score (arith. means)” value in assay [2] came out at 2.733; in assay [3] it was 2.194; in assay [4] (0-5 scale (4 = no change from control), MO (50 ul @ 0.005%) and 200 ul ORIVOL @ 0.1%), 2.375; in assay [5] (DMDS 50 ul @ 0.5% and 200 ul ORIVOL @0.1%), 2.862; in assay [5] (DMDS (50 ul @ 0.06%) and 200 ul ORIVOL), 0.91; in assay [5] (DMDS (50 ul @ 0.5%) and 200 ul ORIVOL) it was 1.46. For the same compound, the “reduction on malodour perceivable by the human nose compared to the malodour taken alone” value in assay [4] (MO, IVA and HMHA, Table 2) was “significant reduction”; in assay [5] (DMDS, Table 1, even at very low concentrations), “significant reduction”. On to `OC1CCCCCCCCCCC1` [Compound 5.5], for which the Sensory score result in assay [1] is reported as “+++”. Turning to `CC(CO)CC1CCCC(C(C)(C)C)C1` (stereo not shown) [Compound 5.3, 3-(3-tert-butylcyclohexyl)-2-methylpropan-1-ol], the Sensory score entry in assay [1] is given as “++++”. With `CC(C)C1CCCC(C(C)C(C)CO)C1` (stereo not shown) [Compound 5.2, 3-(3-isopropylcyclohexyl)-2-methylbutan-1-ol], in assay [1], the Sensory score result is given as “++++”. On to `OC1CCC(C2CCCCC2)CC1` (stereo not shown) [Compound 5.7], for which the Sensory score result in assay [1] is on record as “+++”. On to `CC(CO)CC1CCC(C(C)C)CC1` (stereo not shown) [Compound 5.1], for which the Sensory score result in assay [1] is reported as “++++”.
